Measured values taken from patent US4540696A, “1-Piperazinyl 4-phenylquinazoline compounds having antidepressant properties and drugs containing same” (Sanofi S.A., priority 1982, dated 1985).

How the values were obtained:
[1] = Pharmacological trials on the central nervous system (tests A to E, overall statement); assay type: in vivo, female mice, CDI (Charles Rivers, France); conditions: overall statement on Table II
Experimental: The products according to the invention have been subjected to pharmacological trials with a view to determining their activity on the central nervous system.
The various tests to which the products have been subjected will be indicated hereinbelow. In all cases, the products under study were administered per os.

[2] = test system: hypothermia induced by reserpine; assay: Antagonism of the hypothermia induced by reserpine; assay type: in vivo, female mice, CDI (Charles Rivers, France); conditions: reserpine 5 mg/kg i.p., 4 hours
Experimental: The majority of antidepressants antagonize the hypothermia induced by reserpine. This test was carried out according to the method described by HINO et Coll [Chem Pharm Bull 28 (9), 2618-2622, 1980] on female mice, CDI (Charles Rivers, France) weighing from 18 to 23 g.
(§1) The following protocol was chosen:
The substances to be studied are administered per os to batches of 10 mice, the controls receive the solvent along, simultaneously, the reserpine is administered i.p. at the dose of 5 mg/kg. The temperature of each animal is taken immediately before administration of the products to be tested and 4 hours afterwards. For each animal, the difference in temperature before and after treatment is calculated. The results are expressed in percentage of antagonism of the hypothermia observed in the controls.

[3] = test system: ptosis induced by reserpine; assay: Antagonism of ptosis induced by reserpine; assay type: in vivo, female mouse, CDI (Charles Rivers, France); conditions: reserpine 2 mg/kg intravenous, 1 hour; for ED50: Mus musculus, po, per os, read-out: Antagonism of ptosis induced by reserpine, ED 50
Experimental: The majority of antidepressants antagonize the ptosis induced by reserpine. This test described by Gouret [Journal de Pharmacologie (Paris), 1973, 4(1), 105-128] was made in the female mouse, CDI (Charles Rivers, France) weighing from 18 to 23 g. The reserpine causes a ptosis 1 hour after its intravenous administration; certain antidepressants, particularly the imipraminics, oppose this ptosis.
The following protocol has been chosen:
The substances to be studied were administered per os to batches of 10 mice. The reserpine was administered simultaneously by the intravenous route at the dose of 2 mg/kg. 1 hour after the administration of reserpine, the number of animals not presenting ptosis is noted.

Toxicity = assay type: in vivo; conditions: per os; for Toxicity: in words (atoxic at the stated dose)
[4] = test system: tremors induced by oxotremorine; assay: Antagonism of the tremors induced by oxotremorine; assay type: in vivo, female mice, CDI (Charles Rivers, France); conditions: Mus musculus, po, 0.5 h; per os; oxotremorine 1 mg/kg per os at 60 mins., read 30 mins. later; read-out: Antagonism of oxotremorine, ED 50
Experimental: This test was carried out on female mice, CDI (Charles Rivers, France) weighing from 18 to 23 g.
as §1
The products to be studied are administered at time 0 by the oral route to batches of 10 mice. At time 60 mins., the oxotremorine is administered per os at the dose of 1 mg/kg.

[5] = Porsolt test (despair reaction, reduction in immobilization time); assay type: in vivo, female mouse, CDI (Charles Rivers, France); conditions: per os, 1 hour before test
Experimental: This test was carried out in the female mouse, CDI (Charles Rivers, France) weighing from 18 to 23 g, according to the method described by Porsolt (Archives Internationales de Pharmacologie, 1977, 229, 327-336).
The principle of this test is as follows: when a mouse is placed in a narrow recipient, filled with water, it struggles and then, after 2 to 4 minutes, becomes still and floats on its stomach, its back rounded and its rear paws brought underneath its body; it makes only the few movements to enable it to hold its head out of the water. This is the so-called despair reaction.
Certain psychotherapeutics, particularly antidepressants, lengthen the time during which the mouse struggles.
as §1
The products to be studied were administered orally to batches of 10 mice. 1 hour later, the animals are placed in a narrow receipient (10×10×10 cm), filled with water up to a height of 6 cm, the temperature of the water being 24° C. The animals are left in the water for 6 minutes and the time during which the animal remains immobile between the second and the sixth minute is measured--the shorter the time, the more the substance is active.
The results are expressed as the reduction in the immobilization time with respect to controls.

toxicity of yohimbine = assay: Potentialization of the toxicity of yohimbine; assay type: in vivo, female mice, CDI (Charles Rivers, France); conditions: Mus musculus, po, 18 h, read-out: Potentialization of yohimbine, ED 50
Experimental: The majority of antidepressants potentialize the toxicity of yohimbine. This test was carried out according to the method described by MALICK (in Antidepressants: Neurochemical Behavioural and Clinical Perspectives, eds S. J. Enna, J. B. Malick, E. Richelson, Raven Press, New York, pages 141-153) on female mice, CDI (Charles Rivers, France).
The substances to be studied are administered per os to batches of 10 mice. The yohimbine is administered i.p. 1 hour later at the dose of 30 mg/kg. Mortality is noted 18 hours later.

[6] = 10 mg/kg, ** p < 0.01 (all but 40 460, which has *)
[7] = at 10 mg/kg per os, ** p < 0.01

In the case of OC1CCN(c2nc(-c3ccccc3Cl)c3cc(Cl)ccc3n2)CC1 [40 331, 6-chloro 4-(2-chlorophenyl) 2-(4-hydroxy 1-piperidinyl) quinazoline, reference compound], the “Activity on the tests carried out” value [1] was “virtually inactive”, the “Antagonism of hypothermia induced by reserpine, percentage of antagonism” value (shortened to “Antagonism … percentage of antagonism”) ([2]; at 100 mg/kg per os) was -20% and the “Antagonism of ptosis induced by reserpine, percentage” value ([3]; at 100 mg/kg per os) was 0%. For the same compound, the Toxicity (Toxicity) was “Atoxic at 500 mg/kg”.

In the case of CN1CCN(c2nc(-c3ccccc3Cl)c3cc(Cl)ccc3n2)CC1 [40 460], the ED50 [4] was 142 mg/kg, the “Porsolt test: reduction in the immobilization time with respect to controls” value (“Porsolt test: reduction” for short) [5, 6] was -11% and the “Antagonism … percentage of antagonism” value ([2]; at 20 mg/kg per os, ** p < 0.01) was “+71%”. For the same compound, the ED50 (toxicity of yohimbine) was 5.4 mg/kg, the ED50 [3] was 2.1 mg/kg and the “Toxicity: LD 80” value (Toxicity) was 1000 mg/kg.

In the case of CN1CCN(c2nc(-c3ccccc3F)c3cc(Cl)ccc3n2)CC1 [40 468], the ED50 [4] was 50 mg/kg, the “Porsolt test: reduction” value [5, 6] was -61% and the “Antagonism … percentage of antagonism” value [2, 7] was “+73%”. For the same compound, the ED50 (toxicity of yohimbine) was 1.65 mg/kg, the ED50 [3] was 0.98 mg/kg and the Toxicity (Toxicity) was “Atoxic at 1 g/kg”.

With CN1CCN(c2nc(-c3ccccc3Cl)c3cc([N+](=O)[O-])ccc3n2)CC1 [40 498, 2-(1-methyl 4-piperazinyl) 4-(2-chlorophenyl) 6-nitro quinazoline] the ED50 [4] was 43.5 mg/kg, the “Porsolt test: reduction” value [5, 6] was -31% and the “Antagonism … percentage of antagonism” value [2, 7] was “+68%”. For the same compound, the ED50 (toxicity of yohimbine) was 7.8 mg/kg, the ED50 [3] was 2.8 mg/kg and the Toxicity (Toxicity) was “Atoxic at 1 g/kg”.

In the case of Fc1ccccc1-c1nc(N2CCNCC2)nc2ccc(Cl)cc12 [41 125], the ED50 [4] was 9.5 mg/kg, the “Porsolt test: reduction” value ([5]; 5 mg/kg, ** p < 0.01) was -46 and the “Antagonism … percentage of antagonism” value [2, 7] was “+81%”. For the same compound, the ED50 (toxicity of yohimbine) was 0.74 mg/kg, the ED50 [3] was 0.48 mg/kg and the “Toxicity: LD 40” value (Toxicity) was 1000 mg/kg.

In the case of CCCN1CCN(c2nc(-c3ccccc3F)c3cc(Cl)ccc3n2)CC1 [41 128], the “Porsolt test: reduction” value ([5]; 5 mg/kg, ** p < 0.01) was -31, the “Antagonism … percentage of antagonism” value [2, 7] was “+62%” and the ED50 (toxicity of yohimbine) was 1.7 mg/kg. The ED50 [3] was 6.2 mg/kg and the Toxicity (Toxicity) was “Atoxic at 1 g/kg”.

For CN(C)CCCN1c2ccccc2CCc2ccccc21 [Imipramine, reference compound], the ED50 [4] was 12 mg/kg, the “Porsolt test: reduction” value [5, 6] was -30% and the “Antagonism … percentage of antagonism” value [2, 7] was “+59%”. The ED50 [3] was 2.4 mg/kg.
